Columns and labels:
[1] = system: 4-deoxyorobanchol (4-DO); experiment: LC-MS/MS quantification of 4-deoxyorobanchol in rice roots and root exudates; assay type: in vivo; details: phosphate-starved, 6 h
Description: For the analysis of SLs, one week-old seedlings were further transferred into 50 ml falcon tube (three seedlings per tube) containing Hoagland nutrient solution with K2HPO4·2H2O (+Pi) and grown in the growth cabinet for one week. The rice seedlings were then subjected to phosphate deficiency for another one week period. On the day of root exudates collection, rice seedlings were first treated with 5 μM zaxinone for 6 h and then root exudates and root tissues were collected from each tube for LC-MS/MS analysis and Striga bioassays.
For the quantification of 4-deoxyorobanchol in rice root exudates, 50 ml of root exudate spiked with 0.672 ng of D6-5-deoxystrigol, was brought on a 500 mg/3 ml fast SPE C18 column preconditioned with 6 ml of methanol and 6 ml of water. After washing with 6 ml of water, strigolactones were eluted in 5 ml of acetone. The 4-deoxyorobanchol fraction (acetone-water solution) was concentrated to SLs aqueous solution (˜1 ml), followed by extraction with 1 ml of ethyl acetate. Then 750 μl of 4-deoxyorobanchol enriched organic phase was transferred to a 1.5 ml tube and evaporated to dryness under vacuum. The residue was dissolved in 100 μl of acetonitrile:water (25:75, v:v) and filtered through a 0.22 μm filter for LC-MS/MS analysis.
For the quantification of 4-deoxyorobanchol in rice root, plant tissue material was lyophilized and ground. 30 mg root tissue spiked with 0.672 ng of D6-5-deoxystrigol was extracted with 2 ml of ethyl acetate in an ultrasound bath (Branson 3510 ultrasonic bath) for 15 minutes, followed by centrifugation for 8 minutes at 3800 rpm at 4° C. The supernatant was collected and the pellet was re-extracted with 2 ml of ethyl acetate. The two supernatants were then combined and dried under vacuum. The residue was dissolved in 100 μl of ethyl acetate and 2 ml of hexane. The resulting extract solution was loaded on a Silica gel SPE column (500 mg/3 ml) preconditioned with 3 ml of ethyl acetate and 3 ml of Hexane. After washing with 3 ml of Hexane, 4-deoxyorobanchol was eluted in 3 ml of ethyl acetate and evaporated to dryness under vacuum. The residue was re-dissolved in 200 μl of acetonitrile:water (25:75, v:v) and filtered through a 0.22 μm filter for LC-MS/MS analysis.
4-Deoxyorobanchol was analyzed by using HPLC-Q-Trap-MS/MS with MRM mode. Chromatographic separation was achieved on an Agilent 1200 HPLC system with an Acquity UPLC BEH C18 column (50×2.1 mm; 1.7 μm; Waters Corp.). Mobile phases consisted of water:acetonitrile (95:5, v:v, A) and acetonitrile (B), both containing 0.1% formic acid. […]
SL, 4-deoxyorobanchol (4-DO), was quantified in wild-type and zas mutant roots (FIG. 18A) and root exudates (FIG. 18B) without added zaxinone and in response to zaxinone (5 μM) under phosphate starvation. […]

[2] = system: Shiokari wild-type and ccd mutant seedlings (d17, d10, d3); experiment: Zaxinone effect on root phenotypes of Shiokari wild-type and ccd mutant seedlings; assay type: in vivo, rice (Shiokari)
Description: For investigation of the zaxinone effect on CCD mutant phenotypes, one week-old seedlings were grown hydroponically in Hoagland nutrient solution containing K2HPO4·2H2O (+Pi) for 3 weeks with 2.5 μM zaxinone treatment or Mock treatment (0.1% acetone). The solution was changed every other day, adding the chemical at each renewal. Plants grown without zaxinone served as the controls and phenotypic data were recorded.
The effect of zaxinone (2.5 μM) on root phenotypes of hydroponically grown Shiokari wild-type and ccd mutant seedlings was also studied. FIG. 16D is a visual determination of root growth with (2.5 μM) zaxinone added to the growth medium and without zaxinone (control) for Shiokari wild-type seedlings and ccd mutant seedlings, d17, d10 and d3. The roots of seedlings grown with zaxinone were visually determined to be increased over the controls, with the wild-type (WT) showing the greatest increase. The visual results are confirmed by the root length and root biomass measurements seen in graphs FIG. 16D.

SMILES: CC(=O)/C=C/C=C(C)/C=C/C1=C(C)C[C@@H](O)CC1(C)C [zaxinone, 3-OH-β-apo-13-carotenone]
- SL content in roots and root exudates ([1]; Shiokari d3 mutant, 5 μM): lowered
- SL content in roots and root exudates ([1]; wild-type seedlings, 5 μM zaxinone): Reduction of SL content
- SL (4-deoxyorobanchol) content in roots after zaxinone ([1]; zas mutant seedlings, 5 μM zaxinone, untreated 13): 5 pgmg^−1dry-root-weight
- SL (4-deoxyorobanchol) content in root exudates after zaxinone ([1]; zas mutant seedlings, 5 μM zaxinone, untreated 35): 5 pgmg^−1 dry-root-weight
- growth of roots in SL deficient mutants ([2]; SL biosynthesis and perception mutants): did not promote the growth of roots
- root growth (root length and root biomass) ([2]; Shiokari wild-type and d17, d10, d3 seedlings, hydroponic, 2.5 μM zaxinone): increasing the root growth for all of the seedlings
